ChEMBL document CHEMBL4828725 (Eur J Med Chem, 2021)

Tests used:
Penicillium decumbens = experiment: Inhibition of Penicillium decumbens alpha-L-rhamnosidase using p-nitrophenyl glycoside as substrate assessed as release of p-nitrophenol at 1000 uM measured by spectrometric assay relative to control
Beta-glucuronidase = Beta-glucuronidase (Escherichia coli (strain K12), UniProt P05804); experiment: Inhibition of Escherichia coli beta-glucuronidase using p-nitrophenyl glycoside as substrate assessed as release of p-nitrophenol measured by spectrometric assay
[1] = Inhibition of snail beta-mannosidase using p-nitrophenyl glycoside as substrate assessed as release of p-nitrophenol measured by spectrometric assay; parameters: species or system Helix pomatia
Aspergillus niger = experiment: Inhibition of Aspergillus niger amyloglucosidase using p-nitrophenyl glycoside as substrate assessed as release of p-nitrophenol at 1000 uM measured by spectrometric assay relative to control
Helix pomatia = experiment: Inhibition of snail beta-mannosidase using p-nitrophenyl glycoside as substrate assessed as release of p-nitrophenol at 1000 uM measured by spectrometric assay relative to control
Bos taurus [2] = organism: Bos taurus; experiment: Inhibition of bovine liver beta-galactosidase using p-nitrophenyl glycoside as substrate assessed as release of p-nitrophenol at 1000 uM measured by spectrometric assay relative to control
Sus scrofa = organism: Sus scrofa; experiment: Inhibition of porcine kidney alpha-trehalase using p-nitrophenyl glycoside as substrate assessed as release of p-nitrophenol at 1000 uM measured by spectrometric assay relative to control
[3] = target: T1, Sucrase-isomaltase, intestinal (Rattus norvegicus, UniProt P23739); experiment: Inhibition of rat intestinal sucrase using p-nitrophenyl glycoside as substrate assessed as release of p-nitrophenol measured by spectrometric assay; details: read-out: IC50
[4] = Inhibition of almond beta-glucosidase using p-nitrophenyl glycoside as substrate assessed as release of p-nitrophenol measured by spectrometric assay; parameters: species or system Prunus dulcis
[5] = Inhibition of rice alpha-glucosidase using p-nitrophenyl glycoside as substrate assessed as release of p-nitrophenol measured by spectrometric assay; parameters: species or system Oryza sativa; details: read-out: IC50
Alpha-galactosidase = Alpha-galactosidase (Coffea arabica, UniProt Q42656); experiment: Inhibition of coffee beans alpha-galactosidase using p-nitrophenyl glycoside as substrate assessed as release of p-nitrophenol measured by spectrometric assay; details: read-out: IC50
[6] = target: T1, Sucrase-isomaltase, intestinal; experiment: Inhibition of rat intestinal isomaltase using p-nitrophenyl glycoside as substrate assessed as release of p-nitrophenol measured by spectrometric assay; details: read-out: IC50
[7] = Inhibition of Penicillium decumbens alpha-L-rhamnosidase using p-nitrophenyl glycoside as substrate assessed as release of p-nitrophenol measured by spectrometric assay
[8] = Inhibition of jack bean alpha-mannosidase using p-nitrophenyl glycoside as substrate assessed as release of p-nitrophenol measured by spectrometric assay; parameters: species or system Canavalia ensiformis
[9] = target: T2, Tissue alpha-L-fucosidase (Bos taurus, UniProt Q2KIM0); experiment: Inhibition of bovine kidney alpha-L-fucosidase using p-nitrophenyl glycoside as substrate assessed as release of p-nitrophenol measured by spectrometric assay
T2 sequence (Q2KIM0 whole entry): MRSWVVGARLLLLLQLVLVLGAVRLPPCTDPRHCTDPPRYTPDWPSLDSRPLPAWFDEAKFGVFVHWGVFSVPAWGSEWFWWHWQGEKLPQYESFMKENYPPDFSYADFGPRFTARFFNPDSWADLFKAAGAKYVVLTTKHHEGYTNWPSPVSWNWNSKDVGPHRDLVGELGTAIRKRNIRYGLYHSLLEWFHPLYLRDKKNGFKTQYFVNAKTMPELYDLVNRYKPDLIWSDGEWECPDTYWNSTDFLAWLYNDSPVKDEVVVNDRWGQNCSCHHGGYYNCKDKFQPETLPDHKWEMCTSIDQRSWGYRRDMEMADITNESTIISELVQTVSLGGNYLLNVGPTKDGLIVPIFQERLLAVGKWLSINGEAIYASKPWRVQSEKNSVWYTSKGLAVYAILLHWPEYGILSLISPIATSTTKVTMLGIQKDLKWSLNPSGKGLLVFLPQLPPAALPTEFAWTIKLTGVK

[10] = target: T3, Alpha-mannosidase (Canavalia ensiformis) (UniProt C0HJB3); experiment: Inhibition of jack bean alpha-mannosidase using p-nitrophenyl glycoside as substrate assessed as release of p-nitrophenol at 1000 uM measured by spectrometric assay relative to control
T3 sequence (whole entry): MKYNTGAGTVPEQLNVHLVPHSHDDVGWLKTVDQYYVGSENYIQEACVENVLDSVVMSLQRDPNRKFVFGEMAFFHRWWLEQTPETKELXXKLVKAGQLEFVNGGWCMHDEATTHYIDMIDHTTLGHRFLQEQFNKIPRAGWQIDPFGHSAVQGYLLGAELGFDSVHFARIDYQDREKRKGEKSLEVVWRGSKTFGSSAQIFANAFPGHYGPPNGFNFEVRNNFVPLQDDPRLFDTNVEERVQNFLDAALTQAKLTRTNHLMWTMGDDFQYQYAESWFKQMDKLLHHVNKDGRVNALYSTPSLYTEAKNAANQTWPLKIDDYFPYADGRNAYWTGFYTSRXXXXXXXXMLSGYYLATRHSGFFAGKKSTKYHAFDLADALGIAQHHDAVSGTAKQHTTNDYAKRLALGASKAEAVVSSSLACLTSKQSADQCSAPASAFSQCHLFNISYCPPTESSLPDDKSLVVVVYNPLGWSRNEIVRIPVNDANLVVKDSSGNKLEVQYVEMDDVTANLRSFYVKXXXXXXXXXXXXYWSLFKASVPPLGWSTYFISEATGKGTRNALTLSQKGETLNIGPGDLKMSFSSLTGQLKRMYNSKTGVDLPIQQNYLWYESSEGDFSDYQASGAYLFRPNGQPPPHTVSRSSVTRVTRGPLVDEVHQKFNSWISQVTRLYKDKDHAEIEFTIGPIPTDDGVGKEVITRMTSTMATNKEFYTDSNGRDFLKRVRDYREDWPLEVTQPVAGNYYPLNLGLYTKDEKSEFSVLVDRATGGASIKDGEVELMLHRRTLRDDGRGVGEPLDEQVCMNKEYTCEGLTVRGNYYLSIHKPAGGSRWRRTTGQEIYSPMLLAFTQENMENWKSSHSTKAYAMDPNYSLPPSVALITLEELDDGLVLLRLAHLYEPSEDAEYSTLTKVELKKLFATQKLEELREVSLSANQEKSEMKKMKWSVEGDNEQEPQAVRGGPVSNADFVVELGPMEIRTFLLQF

Bos taurus [11] = organism: Bos taurus; experiment: Inhibition of bovine liver beta-glucosidase using p-nitrophenyl glycoside as substrate assessed as release of p-nitrophenol at 1000 uM measured by spectrometric assay relative to control; format: tissue-based
[12] = Inhibition of rat intestinal maltase using maltose as substrate assessed as release of D-glucose measured by spectrometric assay
[13] = Inhibition of Aspergillus niger amyloglucosidase using p-nitrophenyl glycoside as substrate assessed as release of p-nitrophenol measured by spectrometric assay
[14] = Inhibition of bovine liver beta-galactosidase using p-nitrophenyl glycoside as substrate assessed as release of p-nitrophenol measured by spectrometric assay; format: tissue-based, Bos taurus
Prunus dulcis = experiment: Inhibition of almond beta-glucosidase using p-nitrophenyl glycoside as substrate assessed as release of p-nitrophenol at 1000 uM measured by spectrometric assay relative to control
[15] = target: T4, Tissue alpha-L-fucosidase (Bos taurus) (UniProt Q2KIM0); experiment: Inhibition of bovine kidney alpha-L-fucosidase using p-nitrophenyl glycoside as substrate assessed as release of p-nitrophenol at 1000 uM measured by spectrometric assay relative to control; format: tissue-based
T4 sequence (whole entry): T2 sequence (Q2KIM0 whole entry)

[16] = Inhibition of porcine kidney alpha-trehalase using p-nitrophenyl glycoside as substrate assessed as release of p-nitrophenol measured by spectrometric assay; parameters: species or system Sus scrofa
[17] = Inhibition of bovine liver beta-glucosidase using p-nitrophenyl glycoside as substrate assessed as release of p-nitrophenol measured by spectrometric assay; parameters: species or system Bos taurus
[18] = target: Beta-glucuronidase (Escherichia coli (strain K12)) (UniProt P05804); experiment: Inhibition of Escherichia coli beta-glucuronidase using p-nitrophenyl glycoside as substrate assessed as release of p-nitrophenol at 1000 uM measured by spectrometric assay relative to control
Chain of Beta-glucuronidase (Escherichia coli (strain K12)) (P05804 whole entry, looked up): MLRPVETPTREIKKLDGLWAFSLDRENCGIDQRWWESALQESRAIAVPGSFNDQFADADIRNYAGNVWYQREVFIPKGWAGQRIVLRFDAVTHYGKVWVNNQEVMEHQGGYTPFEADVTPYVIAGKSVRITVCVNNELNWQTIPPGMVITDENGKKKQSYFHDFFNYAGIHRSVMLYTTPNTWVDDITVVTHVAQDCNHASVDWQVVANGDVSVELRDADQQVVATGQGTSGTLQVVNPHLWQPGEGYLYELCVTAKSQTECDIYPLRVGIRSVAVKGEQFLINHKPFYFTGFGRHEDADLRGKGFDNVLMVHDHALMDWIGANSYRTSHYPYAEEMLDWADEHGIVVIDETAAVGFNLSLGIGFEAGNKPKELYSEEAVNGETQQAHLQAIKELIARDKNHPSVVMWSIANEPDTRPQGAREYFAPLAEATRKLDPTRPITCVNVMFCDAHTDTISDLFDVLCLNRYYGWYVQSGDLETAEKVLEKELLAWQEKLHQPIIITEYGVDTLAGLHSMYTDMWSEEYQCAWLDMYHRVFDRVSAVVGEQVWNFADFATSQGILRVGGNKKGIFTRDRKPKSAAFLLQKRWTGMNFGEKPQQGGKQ

Chain of Alpha-galactosidase (Q42656 whole entry): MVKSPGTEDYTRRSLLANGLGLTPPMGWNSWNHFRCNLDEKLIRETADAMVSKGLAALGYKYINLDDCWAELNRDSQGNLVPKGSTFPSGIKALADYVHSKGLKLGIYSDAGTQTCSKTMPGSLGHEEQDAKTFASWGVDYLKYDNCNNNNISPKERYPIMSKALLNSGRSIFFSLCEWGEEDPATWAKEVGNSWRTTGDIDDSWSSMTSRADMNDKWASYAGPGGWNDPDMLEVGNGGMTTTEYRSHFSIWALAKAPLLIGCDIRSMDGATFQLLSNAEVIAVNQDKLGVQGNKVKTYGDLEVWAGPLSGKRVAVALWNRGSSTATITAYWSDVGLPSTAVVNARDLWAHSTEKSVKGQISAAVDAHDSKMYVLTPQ
Chain of Beta-glucuronidase (P05804 whole entry): as the sequence (P05804 whole entry, looked up) above
T1 sequence (P23739 1-1013 limits assumed): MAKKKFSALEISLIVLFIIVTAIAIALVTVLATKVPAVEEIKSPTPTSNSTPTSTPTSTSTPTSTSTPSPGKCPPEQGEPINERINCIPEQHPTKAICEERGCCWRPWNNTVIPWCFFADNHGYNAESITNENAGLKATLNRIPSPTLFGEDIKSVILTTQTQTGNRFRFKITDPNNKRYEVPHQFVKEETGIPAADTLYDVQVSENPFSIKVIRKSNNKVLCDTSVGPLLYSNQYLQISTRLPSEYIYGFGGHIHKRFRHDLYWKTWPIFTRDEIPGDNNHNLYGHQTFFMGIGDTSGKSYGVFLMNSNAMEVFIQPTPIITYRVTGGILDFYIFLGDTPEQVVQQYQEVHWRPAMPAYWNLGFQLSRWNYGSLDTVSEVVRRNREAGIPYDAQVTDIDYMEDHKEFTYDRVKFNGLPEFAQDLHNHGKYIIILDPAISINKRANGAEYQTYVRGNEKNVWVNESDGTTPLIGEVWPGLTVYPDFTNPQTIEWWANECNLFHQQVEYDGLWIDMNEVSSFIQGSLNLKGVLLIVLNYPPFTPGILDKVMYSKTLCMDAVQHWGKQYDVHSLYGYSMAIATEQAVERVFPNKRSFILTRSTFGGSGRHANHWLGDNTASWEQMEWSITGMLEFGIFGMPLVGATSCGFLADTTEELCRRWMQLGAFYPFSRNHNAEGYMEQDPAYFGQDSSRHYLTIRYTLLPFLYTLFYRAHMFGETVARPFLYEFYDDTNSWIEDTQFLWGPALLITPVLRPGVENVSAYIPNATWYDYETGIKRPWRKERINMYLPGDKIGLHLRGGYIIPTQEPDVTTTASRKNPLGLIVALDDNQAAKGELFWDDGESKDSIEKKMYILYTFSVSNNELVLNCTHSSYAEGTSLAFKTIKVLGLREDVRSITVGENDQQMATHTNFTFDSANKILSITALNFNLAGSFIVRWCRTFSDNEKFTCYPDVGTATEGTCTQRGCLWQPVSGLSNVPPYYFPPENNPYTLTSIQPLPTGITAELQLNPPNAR
T1 sequence (P23739 1014-1841 limits assumed): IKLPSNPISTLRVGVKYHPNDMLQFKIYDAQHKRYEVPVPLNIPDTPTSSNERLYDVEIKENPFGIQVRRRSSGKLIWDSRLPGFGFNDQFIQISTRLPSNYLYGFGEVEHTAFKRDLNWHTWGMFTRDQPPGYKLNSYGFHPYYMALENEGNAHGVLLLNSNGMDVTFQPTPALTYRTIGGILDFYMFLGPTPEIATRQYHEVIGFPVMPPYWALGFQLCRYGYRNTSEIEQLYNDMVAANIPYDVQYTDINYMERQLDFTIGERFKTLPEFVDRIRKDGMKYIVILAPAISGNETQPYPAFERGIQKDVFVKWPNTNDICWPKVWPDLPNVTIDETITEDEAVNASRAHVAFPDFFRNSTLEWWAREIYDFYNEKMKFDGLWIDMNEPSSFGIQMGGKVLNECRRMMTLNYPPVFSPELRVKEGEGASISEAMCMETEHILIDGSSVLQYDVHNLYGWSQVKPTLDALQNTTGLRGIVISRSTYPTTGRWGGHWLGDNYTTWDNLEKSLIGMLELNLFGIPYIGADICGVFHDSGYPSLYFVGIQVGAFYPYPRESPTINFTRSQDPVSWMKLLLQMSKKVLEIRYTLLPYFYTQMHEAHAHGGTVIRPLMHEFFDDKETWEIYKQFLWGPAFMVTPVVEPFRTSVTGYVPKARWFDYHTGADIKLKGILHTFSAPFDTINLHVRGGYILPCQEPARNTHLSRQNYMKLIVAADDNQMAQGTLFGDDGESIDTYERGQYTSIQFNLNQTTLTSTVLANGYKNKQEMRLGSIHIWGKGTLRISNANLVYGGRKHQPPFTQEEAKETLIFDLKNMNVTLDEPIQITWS

Row | Structure (SMILES) | inhibition (Penicillium decumbens) [%] | IC50 [1] | inhibition (Aspergillus niger) [%] | inhibition (Helix pomatia) [%] | inhibition (Bos taurus [2]) [%] | inhibition (Sus scrofa) [%] | IC50 [3] [nM] | IC50 [4] | IC50 [5] [nM] | IC50 (Alpha-galactosidase) [nM] | IC50 [6] [nM] | IC50 [7] | IC50 [8] | IC50 [9] | inhibition [10] [%] | inhibition (Bos taurus [11]) [%] | IC50 [12] [nM] | IC50 [13] | IC50 [14] | inhibition (Prunus dulcis) [%] | also measured
1 | CCCCCCC[C@]1(CO)NC[C@H](O)[C@@H](O)[C@@H]1O.Cl | 0 | Not Active | 12.2 | 8.5 | 29 | 12.9 | 230 | Not Active | 50 | 109000 | 550 | Not Active | Not Active | Not Active | 17.3 | 20.5 | 36 | Not Active | Not Active | 36.3 | IC50 (Beta-glucuronidase; read-out: IC50): 28000 nM; inhibition [15]: 45.9%; IC50 [16]: Not Active; IC50 [17]: Not Active
2 | CCCCCC[C@]1(CO)NC[C@H](O)[C@@H](O)[C@@H]1O.Cl | 0.6 | Not Active | 5.4 | 0 | 15.5 | 11.7 | 140 | Not Active | 37 | 76000 | 550 | Not Active | Not Active | Not Active | 5.5 | 10.8 | 34 | Not Active | Not Active | 11.3 | IC50 (Beta-glucuronidase): Not Active; inhibition [15]: 4.3%; IC50 [16]: Not Active; IC50 [17]: Not Active; inhibition [18]: 21.1%
3 | CCCCC[C@]1(CO)NC[C@H](O)[C@@H](O)[C@@H]1O.Cl | 0 | Not Active | 0.83 | 4 | 16.1 | 10.6 | 230 | Not Active | 68 | 83000 | 700 | Not Active | Not Active | Not Active | 5.5 | 8 | 23 | Not Active | Not Active | 18.8 | IC50 (Beta-glucuronidase): Not Active; inhibition [15]: 12.4%; IC50 [16]: Not Active; IC50 [17]: Not Active; inhibition [18]: 10.8%
4 | CCCCCCCC[C@]1(CO)NC[C@H](O)[C@@H](O)[C@@H]1O.Cl | 5.7 | Not Active | 5.9 | 0.5 | 35.2 | 23 | 120 | Not Active | 29 | 98000 | 340 | Not Active | Not Active | Not Active | 4.6 | 14.3 | 19 | Not Active | Not Active | 15.7 | IC50 (Beta-glucuronidase): Not Active; inhibition [15]: 6.6%; IC50 [16]: Not Active; IC50 [17]: Not Active; inhibition [18]: 12%
5 | CCCCCCCCCCCC[C@]1(CO)NC[C@H](O)[C@@H](O)[C@@H]1O.Cl | 0.3 | Not Active | 10.7 | 1.5 | 48.4 | 4.8 | 1200 | Not Active | 24 | 10000 | 7800 | Not Active | Not Active | Not Active | 7.9 | 25 | 70 | Not Active | Not Active | 10 | IC50 (Beta-glucuronidase): Not Active; inhibition [15]: 16%; IC50 [16]: Not Active; IC50 [17]: Not Active; inhibition [18]: 16.5%
